# Patent US12280040B2, “Compositions and methods of a dihydroisoxazole compound that reduces ectoparasite infestations on fish” (EVAH Atlantic Inc., priority 2023, dated 2025)
# Test system: copepodid stage of sea lice
# Assay: Bath test against copepodid stage of sea lice
# Assay type: in vivo
# Settings: in a bath at similar dosage
# Excerpt: While compounds in this class act with similar modes of action (in this case on the gamma-aminobutyric acid (GABA) and glutamate gated chloride channels), differences do exist among them that influence pharmacological activity.
compound,measurement,value
C#CCNC(=O)CNC(=O)c1sc(C2=NOC(c3cc(Cl)cc(Cl)c3)(C(F)(F)F)C2)cc1C (stereo not shown),activity against the copepodid stage of sea lice,inactive
